The results in this text go back to patent US11953435B2, “Zinc-responsive fluorophores” (Northwestern University, priority 2019, dated 2024).

This assay can be described thus: Zinc dissociation constant, fluorescence titration in buffered EGTA-zinc solution. To be noted: for Kd: 200 nM probe, 50 mM HEPES, 0.1 M KNO3, pH 7.2, 10 mM EGTA; for affinity for zinc (in words): compared to other probes. Type of assay: binding. The procedure:
Aqueous solutions were prepared by using de-ionized water with resistivity […], obtained using a Milli-Q water purification system. In order to properly compare the photophysical properties of ZincBY-2, ZincBY-3, and ZincBY-4 to ZincBY-1, the photophysical properties of ZincBY-1 we remeasured. […] Stock solutions of ZincBY-1, ZincBY-2, ZincBY-3, and ZincBY-4 were prepared at concentrations of 5 mM and stored at −20° C. in aliquots that were used immediately after thawing for each experiment. Unless otherwise stated, all spectroscopic methods were conducted in aqueous buffer containing 50 mM HEPES (pH 7.2) and 0.1 M KNO3. UV-visible spectra were acquired on a PerkinElmer Lambda 650 UV/Vis spectrophotometer using quartz cuvettes from Starna (1 cm path length, 10 cm path length used in extinction coefficient and quantum yield determination). Fluorescence spectra were acquired using a PerkinElmer LS 55 fluorescence spectrophotometer. For measurements containing zinc, 99.0% ZnNO3 hexahydrate (final concentration 5 μM) was used. For experiments analyzing apo probes, N,N,N′,N′-Tetrakis(2-pyridylmethyl)ethylenediamine (TPEN) (final concentration 5 μM) was added to solution. Quantum Yield and Extinction Coefficient Determination. Quantum yields for apo and holo ZincBY-1, ZincBY-2, ZincBY-3, and ZincBY-4 were determined by plotting absorbance vs. fluorescence intensity of solutions containing ZincBY-1, ZincBY-2, ZincBY-3, or ZincBY-4 at probe concentrations ranging from 50-250 nM. Serial dilution was used to make solutions at different concentrations. Fluorescein dissolved in 0.1 N NaOH was used as the quantum yield standard, using a literature-determined quantum yield of 0.95.^3 For all fluorophore solutions, fluorescence excitation was set at 490 nm and fluorescence emission was integrated from 510 nm to 650 nm. Zinc Dissociation Constant. Fluorescence spectra were recorded using zinc probes (ZincBY-1, ZincBY-2, ZincBY-3, or ZincBY-4; 200 nM) and ZnSO4 (various concentrations). The solutions were equilibrated in the dark for 1 h prior to measurement. The concentration of ZnSO4 was varied from 1 μM to 9 mM in buffer solution (50 mM HEPES and 0.1 M KNO3, and pH 7.2) containing 10 mM EGTA. Free Zn^2+ was calculated according to a previously reported method (Ref. B4; incorporated by reference in its entirety). Data was fit to the following one-site binding equation: F=(FminKd+Fmax[Zn^2+])/(Kd+[Zn^2+]) pH Response. The fluorescence spectra of zinc probes (ZincBY-2, ZincBY-3, or ZincBY-4; 200 nM) wasere measured at various pH values (4.5-11). The following buffers were used at 50 mM concentration with 0.1 M KNO3: NaOAc/AcOH (pH 4.0-4.5), MES (pH 5.0-6.5), HEPES (pH 7.0-8.0), CHES (pH 8.5-9.5), CAPS (pH 10.0-11.0). Metal Ion Response. The fluorescence spectra of zinc probes (ZincBY-2, ZincBY-3, or ZincBY-4; 200 nM) were measured in the presence an excess of metal ion including 1 mM KNO3, 1 mM NaNO3, 1 mM CaSO4, 1 mM MgSO4, 15 μM MnSO4, 15 μM (NH4)2Fe(SO4)2, 15 μM NH4Fe(SO4)2, 15 μM CoSO4, 15 μM NiSO4, 15 μM CuSO4, 15 μM [Cu(CH3CN)4]PF6, 15 μM CdSO4, 15 μM Hg(NO3)2, 15 μM Pb(NO3)2, or 15 μM ZnSO4. The fluorescence spectra were compared to that of ZincBY-2 (200 nM), ZincBY-3 (200 nM), or ZincBY-4 (200 nM) in the presence of 10 μM TPEN. Determination of octanol-water partition coefficients (log P). A log P value for each probe was determined by agitating nanomolar solutions of each probe in a 1:1 mixture of HEPES buffer and 1-octanol. Solutions were allowed to settle for 1 h and then the fluorescence intensity of each phase was measured. Standard curves of the fluorescence of known concentrations of probes in both solutions were used to determine concentrations.

As to `CC(=O)NCCOc1ccc2n1[B-](F)(F)[N+]1=C(N(CCN(Cc3ccccn3)Cc3ccccn3)Cc3ccccn3)C=CC1=C2c1c(C)cc(C)cc1C` [ZincBY-4, N-(2-((7-((2-(bis(pyridin-2-ylmethyl)amino)ethyl)(pyridin-2-ylmethyl)amino)-5,5-difluoro-10-mesityl-5H-5λ4,6λ4-dipyrrolo[1,2-c:2′,1′-f][1,3,2]diazaborinin-3-yl)oxy)ethyl)acetamide], the affinity, expressed as Kd, was 0.229 ± 0.0184 nM and the “affinity for zinc (in words)” value was “sub-nanomolar”.

Regarding `COc1ccc2n1[B-](F)(F)[N+]1=C(N(CCN(Cc3ccccn3)Cc3ccccn3)Cc3ccccn3)C=CC1=C2c1c(C)cc(C)cc1C` [ZincBY-1, reference compound], binding was characterised by a dissociation constant (Kd) of 3.72 ± 0.87 nM.

With `Cc1cc(C)c(C2=C3C=CC(OCCN)=[N+]3[B-](F)(F)n3c2ccc3N(CCN(Cc2ccccn2)Cc2ccccn2)Cc2ccccn2)c(C)c1` [ZincBY-3, N1-(7-(2-aminoethoxy)-5,5-difluoro-10-mesityl-5H-4λ4,5λ4-dipyrrolo[1,2-c:2′,1′-f][1,3,2]diazaborinin-3-yl)-N1,N2,N2-tris(pyridin-2-ylmethyl)ethane-1,2-diamine], the affinity, expressed as Kd, was 0.0977 ± 0.0261 nM and the “affinity for zinc (in words)” value is reported as “sub-nanomolar”. Besides, the “affinity for zinc higher than that of ZincBY-1” value (relative to ZincBY-1) is given as 38 fold.

The molecule `Cc1cc(C)c(C2=C3C=CC(OCCN=[N+]=[N-])=[N+]3[B-](F)(F)n3c2ccc3N(CCN(Cc2ccccn2)Cc2ccccn2)Cc2ccccn2)c(C)c1` [ZincBY-2, N1-(7-(2-azidoethoxy)-5,5-difluoro-10-mesityl-5H-4λ4,5λ4-dipyrrolo[1,2-c:2′,1′-f][1,3,2]diazaborinin-3-yl)-N1,N2,N2-tris(pyridin-2-ylmethyl)ethane-1,2-diamine] had a Kd of 18.1 ± 2.6 nM. Under “relative to ZincBY-1”, the “affinity for zinc weaker than that of ZincBY-1” value was “five-fold weaker”.

Broadly, the Kd is the free concentration of one partner at which half of the binding sites on the other are occupied at equilibrium, for simple one-to-one binding. Higher therefore signals lower affinity.
